In US4927835A, “Acylphenol derivatives, useful as anti-inflammatory agents and pain suppressants” (priority 1988, dated 1990):
Where two headings read alike, the source gives them in different places.

How the values were obtained:
[1] = Analgesic, anti-inflammatory and anti-pyretic activity, summary statement; assay type: in vivo; details: from the data in Table 1
[2] = Inhibitory action to acetic acid writhing; assay type: in vivo, male mice (ddY strain); details: for ED50: po, read-out: (2) ED50, acetic acid writhing
Method: Six male mice (ddY strain; five weeks of age) were used in a group. The test compound was administered per os and, after one hour, 0.6% acetic acid was intraperitoneally injected at the dose of 0.1 ml/10 g and the total writhings within 20 minutes thereafter were counted. By comparing the number of writhings of the drug-treated group to that of the control group, the inhibitory rate was obtained and an ED50 value was calculated.

[3] = Inhibitory action to pain by heat stimulation (tail flick); assay type: in vivo, male mice (ddY strain); details: mouse, per os; for ED50: po, tail flick at 5, 15, 30, 45 and 60 minutes, read-out: (3) ED50, pain by heat stimulation
Method: Ten male mice (ddY strain; five weeks of age) were used in a group. Radiated heat (250 watts; 4 cm distance from the heat source) was applied to the end of the tail of the mice. […] The test compound was administered per os and the time of appearance of the tail flick after 5, 15, 30, 45 and 60 minutes was measured. […] The maximum positive rate among the analgesically positive rates in each measuring time was defined as the analgesically positive rate at that dose and an ED50 value was calculated therefrom.

[4] = Stomach disorder (ulcer generation); parameters: species or system male rats (SD strain); details: rat, in vivo, po; for selectivity ratio: ratio UD50/ED50, read-out: Safety Region (UD50 /ED50)
Method: Ten male rats (SD strain; five weeks of age) were used in a group. The test compound dissolved or suspended in physiological saline solution was administered to them per os. The animals were than fasted for 17 hours, and 0.5 ml of 5% pontamine sky blue solution was injected intravenously and, after 10 minutes, they were sacrificed with ether. The stomach was removed from the animals, and about 8 ml of 5% formaline solution was injected into the stomach to provide a semifixing. The presence of the […] was checked using a stereoscopic microscope. Rats in which even one ulcer was observed was judged to be positive in ulcer generation and a UD50 value was calculated by a provit method.

[5] = Acute toxicity; parameters: species or system male rats (SD strain); details: in vivo, po; rat, per os; 7 days; provit method; read-out: (5) LD50, acute toxicity
Method: Test data showing the activity and superiority for compounds representative of those of the present invention is set forth below. In the tests, a representative compound of the present invention, namely 3-(1,1-Dimethylethyl)-4-hydroxy-5-[N-(2-hydroxyethyl)-N-methylaminomethyl]phenyl-2-thienyl ketone, the compound described in Example 4 (the "test compound"), was dissolved or suspended in 0.5% methylcellulose (MC) and administered as described.
Four male rats (SD strain; six weeks of age) were used in a group. The test compound was given per os and, after 7 days, the […] were monitored for life and an LD50 value was calculated by a provit method.

[6] = Inhibitory action to carrageenin edema (right hind paw); assay type: in vivo, male rats (SD strain); details: for ED30: read-out: (1) ED30, carrageenin edema
Method: Seven male rats (SD strain; 6 weeks of age) were used in a group. The test compound was administered per os and, after one hour, 0.1 ml of 0.5% λ-carrageenin solution was injected subcutaneously into the right hind paw. After three hours, the volume of the right hind paw was measured with a plethysmometer (UGO-BASILE). The degree of swelling was calculated by subtracting the volume before the carrageenin from the post injection volume.

[7] = Agents and Actions, vol. 12, page 5, 1982; cited from earlier work
[8] = values given in literature; cited from earlier work
[9] = mouse, per os, 0.6% acetic acid i.p. after one hour, writhings within 20 minutes
[10] = rat, per os, carrageenin 1 hour after compound, paw volume after three hours

CN(CCO)Cc1cc(C(=O)c2cccs2)cc(C(C)(C)C)c1O [Example 4, 3-(1,1-Dimethylethyl)-4-hydroxy-5-[N-(2-hydroxyethyl)-N-methylaminomethyl]phenyl 2-thienyl ketone]
analgesic and anti-inflammatory activity, in words [1]: strong analgesic and anti-inflammatory activity
analgesic activity, inflammatory pain (acetic acid writhing), compared with codeine ([2]; mouse, per os): analgesic activity as strong as codeine
ED50 [2, 9]: 16.4 mg/kg
analgesic activity, non-inflammatory pain (heat stimulation), compared with codeine [3]: analgesic activity as strong as codeine
ED50 [3]: 47 mg/kg
TD50 [4]: 146 mg/kg
selectivity ratio [4]: 14.9
LD50 at 168 h [5]: 1000 mg/kg
inhibitory action to carrageenin edema, in words ([6]; rat, per os): inhibitory action to carrageenin edema
ED30 [6, 10]: 9.8 mg/kg

CC(C)(C)c1cc(C(=O)c2cccs2)cc(C(C)(C)C)c1O [Example R-830, 3,5-di-tert-butyl-4-hydroxy-phenyl 2-thienyl ketone]
inhibitory action against carrageenin-induced edema, in words [7]: inhibitory action against carrageenin-induced edema
ED50 [2, 9]: 22.4 mg/kg
(3) action on pain by heat stimulation (no ED50) ([3]; at 500 mg/kg): no action at 500 mg/kg
(5) LD50, acute toxicity [8]: 1625 mg/kg
TD50 [4]: 11.8 mg/kg
selectivity ratio [4]: 2.1
ED30 [6, 10]: 5.6 mg/kg

COc1ccc2c(c1)c(CC(=O)O)c(C)n2C(=O)c1ccc(Cl)cc1 [Indomethacin]
ED50 ([2]; Mus musculus): 2.1 mg/kg
(3) action on pain by heat stimulation (no ED50) ([3]; at 20 mg/kg): no action at 20 mg/kg
TD50 ([4]; per os, fasted 17 hours, provit method, read-out: (4) UD50, stomach ulcer generation): 2.4 mg/kg
selectivity ratio [4]: 3
ED30 ([6]; Rattus norvegicus): 0.8 mg/kg

O=C(Cn1c(=O)sc2ccc(Cl)cc21)N1CCN(CCO)CC1 [Thiaramide]
ED50 [2, 9]: 27.3 mg/kg
ED50 [3]: 108 mg/kg
(5) LD50, acute toxicity [8]: 4700 mg/kg
TD50 [4]: 278 mg/kg
selectivity ratio [4]: 2.5
ED30 [6, 10]: 112 mg/kg
